Data from ChEMBL document CHEMBL1135926, “Structure-based design of novel potent nonpeptide thrombin inhibitors” (J Med Chem, 2002).

Tests used:
[1] = target: Prothrombin (Homo sapiens, UniProt P00734); experiment: Inhibition of human thrombin by chromogenic assay
[2] = target: Trypsin (Homo sapiens, UniProt P07477+P07478+P35030); experiment: Inhibitory constant (Ki) was determined against human trypsin; type: protein assay
[3] = target: Vitamin K-dependent protein C (Homo sapiens, UniProt P04070); experiment: Inhibitory constant (Ki) was determined against human Activated protein C
[4] = target: Tissue-type plasminogen activator (Homo sapiens, UniProt P00750); experiment: Inhibitory constant (Ki) was determined against human Tissue plasminogen activator (tissue plasminogen activator)
[5] = species: Homo sapiens; experiment: Effective dose was determined against human plasma using PTT reagent; type: functional
[6] = target: Plasminogen (Homo sapiens, UniProt P00747); experiment: Inhibitory constant (Ki) was determined against human plasmin
Sequence of Plasminogen (P00747 97-580 limits assumed): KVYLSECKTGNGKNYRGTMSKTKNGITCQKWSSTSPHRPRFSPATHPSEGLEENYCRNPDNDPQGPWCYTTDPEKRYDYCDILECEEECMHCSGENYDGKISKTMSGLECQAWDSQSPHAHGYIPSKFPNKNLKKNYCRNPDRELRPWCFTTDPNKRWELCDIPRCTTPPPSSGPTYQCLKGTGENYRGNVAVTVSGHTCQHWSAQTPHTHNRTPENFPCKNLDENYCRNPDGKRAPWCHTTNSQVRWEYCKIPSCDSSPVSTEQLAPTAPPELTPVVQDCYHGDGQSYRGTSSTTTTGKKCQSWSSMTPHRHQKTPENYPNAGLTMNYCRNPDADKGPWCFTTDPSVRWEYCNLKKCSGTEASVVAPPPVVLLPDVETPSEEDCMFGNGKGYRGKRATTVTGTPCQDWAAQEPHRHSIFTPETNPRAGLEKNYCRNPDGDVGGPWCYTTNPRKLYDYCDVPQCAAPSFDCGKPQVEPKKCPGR
Sequence of Plasminogen (P00747 581-810 limits assumed): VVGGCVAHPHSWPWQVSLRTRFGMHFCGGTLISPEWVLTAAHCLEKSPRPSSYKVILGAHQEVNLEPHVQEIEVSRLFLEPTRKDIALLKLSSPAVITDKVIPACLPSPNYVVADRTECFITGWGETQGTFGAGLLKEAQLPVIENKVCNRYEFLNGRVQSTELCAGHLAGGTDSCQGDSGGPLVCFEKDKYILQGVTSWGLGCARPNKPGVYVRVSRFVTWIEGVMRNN

Sequence of Vitamin K-dependent protein C (P04070 43-197 limits assumed): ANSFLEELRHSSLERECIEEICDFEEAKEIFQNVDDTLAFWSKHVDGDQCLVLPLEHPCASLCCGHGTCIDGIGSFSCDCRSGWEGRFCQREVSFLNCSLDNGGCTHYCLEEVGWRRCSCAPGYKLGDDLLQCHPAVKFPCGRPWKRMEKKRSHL
Sequence of Vitamin K-dependent protein C (P04070 212-461 limits assumed): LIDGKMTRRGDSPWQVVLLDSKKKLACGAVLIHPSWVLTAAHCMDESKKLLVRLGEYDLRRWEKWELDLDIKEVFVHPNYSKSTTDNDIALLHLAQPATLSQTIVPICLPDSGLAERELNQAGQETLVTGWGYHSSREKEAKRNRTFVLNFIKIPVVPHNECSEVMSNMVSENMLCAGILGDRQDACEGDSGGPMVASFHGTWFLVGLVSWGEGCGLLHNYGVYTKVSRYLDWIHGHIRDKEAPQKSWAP
Sequence of Tissue-type plasminogen activator (P00750 whole entry): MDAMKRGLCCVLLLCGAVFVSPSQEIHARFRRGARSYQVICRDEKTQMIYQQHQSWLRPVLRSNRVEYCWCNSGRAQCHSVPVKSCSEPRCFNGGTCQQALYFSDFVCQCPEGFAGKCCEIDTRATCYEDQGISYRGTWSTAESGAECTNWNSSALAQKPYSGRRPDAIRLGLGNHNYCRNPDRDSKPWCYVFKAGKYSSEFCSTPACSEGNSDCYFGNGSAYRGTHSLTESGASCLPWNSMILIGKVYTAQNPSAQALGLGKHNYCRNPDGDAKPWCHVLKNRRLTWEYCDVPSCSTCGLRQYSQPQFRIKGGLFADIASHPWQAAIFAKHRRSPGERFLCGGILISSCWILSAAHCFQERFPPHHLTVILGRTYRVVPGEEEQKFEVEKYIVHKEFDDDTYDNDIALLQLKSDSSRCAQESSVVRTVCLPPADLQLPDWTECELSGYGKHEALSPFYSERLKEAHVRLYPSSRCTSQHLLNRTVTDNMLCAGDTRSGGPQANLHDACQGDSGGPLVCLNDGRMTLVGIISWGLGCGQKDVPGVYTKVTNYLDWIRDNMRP

IC50 [1]	Structure (SMILES)	other results
4 µM	CCCn1c(Cc2ccc(C(=N)N)cc2)nc2cc(NS(=O)(=O)c3ccccc3)ccc21	
	Cn1c(CNc2ccc(C(=N)N)cc2)nc2cc(C(=O)N(CCC(=O)O)c3ccccn3)ccc21 [DABIGATRAN]	Ki [2]: 0.0503 µM; Ki [3]: 20.9 µM; Ki [4]: 45.4 µM; ED2 [5]: 0.23 µM; Ki [6]: 1.69 µM
0.13 µM	Cn1c(Cc2ccc(C(=N)N)cc2)nc2cc(N(CCCC(=O)O)S(=O)(=O)c3cccc4cccnc34)ccc21	
1.8 µM	COc1ccc(OC)c(S(=O)(=O)Nc2ccc3c(c2)nc(Cc2ccc(C(=N)N)cc2)n3C)c1	
1.6 µM	Cn1c(Cc2ccc(C(=N)N)cc2)nc2cc(NS(=O)(=O)c3cccnc3)ccc21	
0.0054 µM	Cn1c(CNc2ccc(C(=N)N)cc2)nc2cc(C(=O)N(CCC(=O)O)c3ccccc3)ccc21	
19 µM	N=C(N)c1ccc(Cc2nc3cc(NS(=O)(=O)c4ccccc4)ccc3[nH]2)cc1	
0.33 µM	Cn1c(COc2ccc(C(=N)N)cc2)nc2cc(C(=O)N(CC(=O)O)c3ccccc3)ccc21	
2.4 µM	CCn1c(Cc2ccc(C(=N)N)cc2)nc2cc(NS(=O)(=O)c3ccccc3)ccc21	
0.01 µM	Cn1c(CNc2ccc(C(=N)N)cc2)nc2cc(C(=O)N(CCCC(=O)O)c3ccccc3)ccc21	
0.032 µM	Cn1c(CCc2ccc(C(=N)N)cc2)nc2cc(N(CC(=O)O)S(=O)(=O)c3cccc4cccnc34)ccc21	
> 100 µM	Cn1c(Cc2ccc(C(=N)N)cc2)nc2cc(NS(=O)(=O)c3cc(C(F)(F)F)cc(C(F)(F)F)c3)ccc21	
1.3 µM	CN(c1ccc2c(c1)nc(Cc1ccc(C(=N)N)cc1)n2C)S(=O)(=O)c1ccccc1	
0.51 µM	Cn1c(Cc2ccc(C(=N)N)cc2)nc2cc(NS(=O)(=O)c3cccc4cnccc34)ccc21	
0.12 µM	Cn1c(Cc2ccc(C(=N)N)cc2)nc2cc(N(CC(=O)O)S(=O)(=O)c3cccc4cccnc34)ccc21	
24 µM	Cn1c(Cc2ccc(C(=N)N)cc2)nc2cc(NS(=O)(=O)c3ccc4ccccc4c3)ccc21	
0.058 µM	Cn1c(COc2ccc(C(=N)N)cc2)nc2cc(N(CC(=O)O)S(=O)(=O)c3cccc4cccnc34)ccc21	
0.01 µM	Cn1c(CNc2ccc(C(=N)N)cc2)nc2cc(C(=O)N(CC(=O)O)c3ccccc3)ccc21	
0.26 µM	Cn1c(Cc2ccc(C(=N)N)cc2)nc2cc(NS(=O)(=O)c3cccc4cccnc34)ccc21	
0.054 µM	Cn1c(CCc2ccc(C(=N)N)cc2)nc2cc(C(=O)N(CC(=O)O)c3ccccc3)ccc21	
0.6 µM	Cn1c(Cc2ccc(C(=N)N)cc2)nc2cc(NS(=O)(=O)c3cccc4ccccc34)ccc21	

Structure (SMILES)	IC50 [1]	other results
Cn1c(CNc2ccc(C(=N)N)cc2)nc2cc(N(CC(=O)O)S(=O)(=O)c3cccc4cccnc34)ccc21	0.011 µM	
